Drawing on US5486516A, “Furopyrimidine derivatives” (DowElanco, priority 1993, dated 1996), this text covers mortality and pest or weed control for eleven compounds.

The subject of assay [1] is Twospotted spider mites (Tetranychus urticae Koch). In words: Mite/insect screen, twospotted spider mites. The class given is in vivo. Particulars: Tetranychus urticae, sprayed leaves, read-out: SM results (percent mortality); for mortality at 200 ppm: rate 200 ppm; for mortality at 400 ppm: rate 400 ppm. The method, then:
(§1) The compounds of Examples were tested for miticidal and insecticidal activity in the following mite/insect screen.
(§2) Each test compound was formulated by dissolving the compound in acetone/alcohol (50:50) mixture containing 23 g of "TOXIMUL R" (sulfonate/nonionic emulsifier blend) and 13 g of "TOXIMUL S" (sulfonate/nonionic emulsifier blend) per liter. These mixtures were then diluted with water to give the indicated concentrations.
(§3) Twospotted spider mites (Tetranychus urticae Koch) and melon aphids (Aphis gossvpii Glover) were introduced on squash cotyledons and allowed to establish on both leaf surfaces. Other plants in the same treatment pot were left uninfested. The leaves were then sprayed with 5 ml of test solution using a DeVilbiss atomizing sprayer at 10 psi. Both surfaces of the leaves were covered until runoff, and then allowed to dry for one hour. Two uninfested leaves were then excised and placed into a Petri dish containing larval southern armyworm (Spodopetra eridania Cramer).
(§4) After standard exposure periods, percent mortality and phytotoxicity were evaluated. […] The following abbreviations are used in Table 3:
SM refers to twospotted spider mites

For assay [2], the system named is Puccinia recondita tritici (leaf rust). In words: Plant pathology screen (Test 1), leaf rust on wheat. Particulars: in Triticum aestivum, foliar, read-out: LEAF RUST control rating.
Procedure: (§5) This screen was used to evaluate the efficacy of the present compounds against a variety of different organisms that cause plant diseases.
(§6) The test compounds were formulated for application by dissolving 50 mg of the compound into 1.25 ml of solvent. The solvent was prepared by mixing 50 ml of "Tween 20" (polyoxyethylene (20) sorbitan monolaurate emulsifier) with 475 ml of acetone and 475 ml of ethanol. The solvent/compound solution was diluted to 125 ml with deionized water. The resulting formulation contains 400 ppm test chemical. Lower concentrations were obtained by serial dilution with the solvent-surfactant mixture.
The formulated test compounds were applied by foliar spray.
(§7) The formulated technical compounds were sprayed on all foliar surfaces of the host plants (or cut berry) to past run-off. Single pots of each host plant were placed on raised, revolving pedestals in a fume hood. Test solutions were sprayed on all foliar surfaces. All treatments were allowed to dry and the plants were inoculated with the appropriate pathogens within 2-4 hours.
(§8) The effectiveness of test compounds in controlling disease was rated using the following scale.
The test system of assay [3] is melon aphids (Aphis gossvpii Glover). The assay is described as follows: Mite/insect screen, melon aphids. The class given is in vivo. To be noted: Aphis, sprayed leaves, read-out: MA results (percent mortality); for mortality at 200 ppm: rate 200 ppm; for mortality at 400 ppm: rate 400 ppm. Here is the method: as §1, §2, §3, §4
MA refers to melon aphids.

Assay [4] relates to Pyricularia oryzae (rice blast). The assay is described as follows: whole plant or invertebrate. Particulars: foliar, read-out: RICE BLAST control rating. The assay is classed as in vivo.
Assay [5] has as its system Southern corn rootworm (Diabrotica undecimpuctata howardi Barber). In words: Mite/insect screen, corn rootworm. The class given is in vivo. To be noted: Diabrotica, soil, read-out: CRW results (percent mortality); for mortality at 12 ppm: CRW rate 12.00 ppm; for mortality at 24 ppm: CRW rate 24.00 ppm. Here is the method:
as §1, §2
Activity on Southern corn rootworm (Diabrotica undecimpuctata howardi Barber) was evaluated by adding two ml of tap water, a presoaked corn seed, and 15 g of dry sandy soil to a one ounce plastic container. The soil was treated with 1 mL of test solution containing a predetermined concentration of test compound. After six to 12 hours of drying, five 2-3 instar corn rootworm larvae were added to the individual cups, which were then capped and held at 23° C.
as §4
CRW refers to corn rootworm

Assay [6] relates to southern armyworm (Spodopetra eridania Cramer). The assay is described as follows: Mite/insect screen, Southern armyworm. The assay is classed as in vivo. Particulars: Spodoptera eridania, sprayed leaves, read-out: SAW results (percent mortality); for mortality at 200 ppm: rate 200 ppm; for mortality at 400 ppm: rate 400 ppm. Here is the method:
as §1, §2, §3, §4
SAW refers to Southern armyworm

The test system of assay [7] is Botrytis cinerea (gray mold). In words: Plant pathology screen (Test 1), gray mold on grape berries. To be noted: read-out: GRAY MOLD control rating.
Procedure: as §5, §6
The formulated test compounds were applied by foliar spray. The following plant pathogens and their corresponding plants were employed.
as §7, §8
For assay [8], the system named is Pseudoperonospora cubensis (downy mildew). In words: Plant pathology screen (Test 1), downy mildew on squash. Particulars: foliar, read-out: DOWN MDEW control rating.
Assay [9] concerns Erysiphe graminis tritici (powdery mildew). In words: Plant pathology screen (Test 1), powdery mildew on wheat. To be noted: Blumeria graminis, in Triticum aestivum, foliar, read-out: POWD MDEW control rating.

SMILES strings stand for the structures.

The mortality is the percentage killed. As to `Cc1oc2ncnc(OCCN3C[C@@H](C)O[C@H](C)C3)c2c1C` (relative stereo) [Example 58, Trans-5,6-dimethyl-4-[2-(2,6-dimethyl-4-morpholinyl)ethoxy]furo[2,3-d]pyrimidine], the mortality at 200 ppm in assay [1], in [3] and in assay [6] was 0% in each case. Also, the mortality at 400 ppm in assay [1], in assay [3] and in assay [6] was 0% throughout. Further, the pest or weed control at 400 µg/mL in assay [2] is 20 to 89%; in assay [4], 0 to 19%; in assay [7], 0 to 19%; in [8] it was 20 to 89%; in [9] it was 0 to 19%. In addition, the mortality at 12 ppm in [5] is 0%. Moreover, the mortality at 24 ppm in assay [5] was found to be 0%.

As for `COc1ccc(CCNc2ncnc3oc(C)c(C)c23)cc1` [Example 1, N-[2-(4-methoxyphenyl)ethyl]-5,6-dimethylfuro[2,3-d]pyrimidin-4-amine], the mortality at 200 ppm in assay [1] came to 0%; in assay [3] it was 80%; in assay [6] it was 0%. Further, the mortality at 400 ppm in assay [1], in [3] and in [6] was 0% throughout. The pest or weed control at 400 µg/mL was in the range of 20 to 89% in [2]; 90 to 100% in assay [4]; 0 to 19% in assay [7]; 20 to 89% in assay [8]; 0 to 19% in assay [9]. Besides, the mortality at 12 ppm in assay [5] worked out at 0%. Besides, the mortality at 24 ppm in assay [5] amounted to 100%.

Take `COc1ccc(CCNc2ncnc3occ(C)c23)cc1` [Example 2, 5-methyl-N-[2-(4-methoxyphenyl)ethyl]furo[2,3-d]pyrimidin-4-amine]: the mortality at 200 ppm in [1], in assay [3] and in [6] was 0% in each case. For the same compound, the mortality at 400 ppm was 0% in assay [1], 80% in assay [3] and 0% in assay [6]. Also, the pest or weed control at 400 µg/mL in assay [2] fell in the range of 90 to 100%; in assay [4] it was 90 to 100%; in assay [7], 0 to 19%; in assay [8] it was 90 to 100%; in [9], 20 to 89%. For the same compound, the mortality at 12 ppm in assay [5] is 0%. In addition, the mortality at 24 ppm in assay [5] worked out at 0%.

As to `Cc1oc2ncnc(Oc3ccc(OC(F)(F)F)cc3)c2c1C` [Example 32, 5,6-dimethyl-4-[4-(trifluoromethoxy)phenoxy]furo[2,3-d]pyrimidine], the mortality at 200 ppm in [1], in assay [3] and in assay [6] was 0% each time. Moreover, the mortality at 400 ppm in assay [1], in assay [3] and in assay [6] was 0% in each case. Besides, the pest or weed control at 400 µg/mL in assay [2], in assay [4], in [8] and in assay [9] was 0 to 19% each time. Further, in [5], the mortality at 12 ppm stood at 0%. Also, the mortality at 24 ppm in assay [5] was 0%.

Consider `COc1cccc(CCNc2ncnc3occ(C)c23)c1` [Example 33, 5-methyl-N-[2-(3-methoxyphenyl)ethyl]furo[2,3-d]pyrimidin-4-amine], for which the mortality at 200 ppm was 80% in assay [1], 40% in [3] and 0% in assay [6]. For the same compound, the mortality at 400 ppm in assay [1], in assay [3] and in assay [6] was 0% in each case. For the same compound, the pest or weed control at 400 µg/mL was in the range of 90 to 100% in assay [2], 20 to 89% in assay [4], 90 to 100% in assay [8] and 90 to 100% in [9]. For the same compound, the mortality at 12 ppm in assay [5] was determined as 0%. Besides, the mortality at 24 ppm in assay [5] was 0%.

Take `Fc1ccc(Oc2ncnc3oc4c(c23)CCCC4)cc1` [Example 34, 4-(4-fluorophenyloxy)-5,6,7,8-tetrahydrobenzofuro[2,3-d]pyrimidine]: the mortality at 200 ppm in assay [1], in assay [3] and in assay [6] was 0% throughout. In addition, the mortality at 400 ppm in assay [1], in assay [3] and in assay [6] was 0% throughout. For the same compound, the pest or weed control at 400 µg/mL in [2] lay within 20 to 89%; in assay [4] it was 0 to 19%; in [8], 0 to 19%; in assay [9], 0 to 19%. Moreover, the mortality at 12 ppm in assay [5] came out at 0%. For the same compound, in assay [5], the mortality at 24 ppm was 0%.

For the compound `COc1ccccc1CCNc1ncnc2occ(C)c12` [Example 35, 5-methyl-N-[2,(2-methoxyphenyl)ethyl]furo[2,3-d]pyrimidin-4-amine], the mortality at 200 ppm in assay [1], in assay [3] and in assay [6] was 0% each time. Besides, the mortality at 400 ppm in [1] amounted to 0%; in assay [3], 30%; in [6], 0%. The pest or weed control at 400 µg/mL lay within 90 to 100% in [2], 0 to 19% in [4], 20 to 89% in assay [8] and 0 to 19% in assay [9]. Besides, in assay [5], the mortality at 12 ppm was 0%. Besides, in assay [5], the mortality at 24 ppm came out at 0%.

Turning to `Cc1oc2ncnc(Oc3ccc(C#N)cc3)c2c1C` [Example 36, 4-[(5,6-dimethylfuro[2,3-d]pyrimidin-4-yl)oxy]benzonitrile], the mortality at 200 ppm in assay [1], in assay [3] and in [6] was 0% in each case. For the same compound, the mortality at 400 ppm in assay [1], in assay [3] and in [6] was 0% each time. Moreover, the pest or weed control at 400 µg/mL in assay [2], in [4], in assay [8] and in assay [9] was 0 to 19% throughout. In addition, the mortality at 12 ppm in assay [5] worked out at 0%. Also, the mortality at 24 ppm in assay [5] was determined as 0%.

For the compound `Cc1oc2ncnc(Oc3ccccc3C#N)c2c1C` [Example 37, 2-[(5,6-dimethylfuro[2,3-d]pyrimidin-4-yl)oxy]benzonitrile], the values for the mortality at 200 ppm in assay [1], in assay [3] and in assay [6] were 90%, 0% and 0%, respectively. Besides, the mortality at 400 ppm in [1], in assay [3] and in assay [6] was 0% in each case. The pest or weed control at 400 µg/mL in assay [2] was in the range of 0 to 19%; in [4] it was 0 to 19%; in assay [8], 20 to 89%; in assay [9], 0 to 19%. Moreover, the mortality at 12 ppm in assay [5] was 0%. The mortality at 24 ppm in assay [5] was determined as 0%.

For `Cc1oc2ncnc(OCCc3ccc(OCC(F)(F)F)cc3)c2c1C` [Example 78], in [1], the mortality at 200 ppm is 20% and the mortality at 400 ppm amounted to 0%. Moreover, in assay [3], the mortality at 200 ppm came to 90% and the mortality at 400 ppm amounted to 100%. In assay [5], the mortality at 12 ppm was 0% and the mortality at 24 ppm was 0%. In addition, in [6], the mortality at 200 ppm was 0% and the mortality at 400 ppm was determined as 100%.

For the compound `COc1ccc(CCn2cnc3oc(C)c(C)c3c2=N)cc1` [Example 80, 3-[2-(4-methoxyphenyl)ethyl]-5,6-dimethylfuro[2,3-d]pyrimidin-4(3H)-imine], the mortality at 200 ppm in assay [1], in assay [3] and in [6] was 0% each time. Besides, the mortality at 400 ppm in assay [1], in [3] and in assay [6] was 0% each time. The pest or weed control at 400 µg/mL in assay [2], in assay [4], in [7] and in [9] was 0 to 19% in each case. Further, the mortality at 12 ppm in [5] was 0%. For the same compound, the mortality at 24 ppm in [5] stood at 0%.
